According to patent US6716628B2, “Chondrogenesis promoters and indolin-2-one derivatives” (Chugai Seiyaku Kabushiki Kaisha, priority 1999, dated 2004):

Experiments:
[1] = tested on: common mouse chondrocyte and adipocyte precursor cell line (CL-1); assay: Uptake of 35S-labeled sulfuric acid into CL-1; assay type: cell-based; conditions: 10 μmol/L (A and F also 1 or 5 μmol/L), 48 h culture, uptake in final 24 h
Method: The above-mentioned cell line CL-1 was cultured in a 96-well cell culturing plate (Wallac Corp.) for a liquid scintillation counter (Wallac Corp.) to a cell density of 1000 per well. The medium used was α-MEM (GIBCO Corp.) containing 100 U/mL of penicillin (Meiji Seika Co., Ltd.), 100 μg/mL of streptomycin (Banyu Pharmaceutical Corp.) and 10% fetal bovine serum (INTERGEN Corp.). When the CL-1 cells reached confluency, the medium was exchanged with one containing 10 μmol/L of compounds A, B, C, D, E, F and G, and after 24 hours, ^35S-labeled sulfuric acid was added at 0.5 μCi per well and culturing was continued. For compounds A and F, a medium was also prepared with a concentration of 1 or 5 μmol/L. After 24 hours, the medium was discarded and the cell layer was fixed for 2 hours at room temperature using 0.2 mL of 5% paraformaldehyde (0.1 mol/L phosphate buffer solution (pH 7.4, Wako Pure Chemical Industries) containing 0.4% cetylpyridinium chloride (Wako Pure Chemical Industries). After discarding the fixing solution, it was washed once with the same solution and the washed solution was discarded. After adding 0.1 mL of scintillator (Wallac Corp.) to the cell layer and stirring, the radioactivity was measured with a scintillation counter (Wallac Corp.).

[2] = tested on: rat knee joints; assay: Chondrogenesis promoting effect with administration into rat knee joints; assay type: in vivo; conditions: 1 mmol/L, 50 μL per day into right knee joint for 3 weeks
Method: A 27G injection needle and 1 mL syringe (both by Terumo Corp.) were used to administer 1 mmol/L of “compound A” (dissolved in 50% DMSO dimethylsulfoxide)-physiological saline solution; DMSO by Junsei Chemical Corp., physiological saline by Otsuka Pharmaceutical Corp.) into the right knee joint of 10-week-old male SD rats (Nihon Charles River Corp.) at a dosage of 50 μL per day for 3 weeks.
Another test group was administered 50% DMSO-physiological saline (by Junsei Chemical Corp. and Otsuka Pharmaceutical Corp., respectively) in the same manner as a vehicle control.
After 3 weeks of daily administration, the rats were autopsied, and the distance between lateral and medial attachment sites of collateral ligament of the right femur was measured with calipers (Mitsutoyo Corp.) to determine the width of the femoral knee joint. Then, in the same manner as Example 1, tissue samples were prepared and stained with 0.3% Safranin O (Merck Co., Ltd.) and observed under a microscope (magnification: 10× object lens, product of Nihon Kogaku Corp.).

[3] = tested on: rabbit osteoarthritis model; assay: Pathology suppressing effect in a rabbit osteoarthritis model; assay type: in vivo; conditions: 3.0 mmol/L, vs solvent alone
Method: Rabbit osteoarthritis model was prepared using 12-week-old male NZW rabbits (Kitayama Labes Co., Ltd.), and performing partial menisectomy in right knee, and excision of the lateral collateral ligament and sesamoid ligament, according to the method of Colombo et al. (Arthritis Rheum. 26(7):875-886, 1983). Beginning on the 7th day after the operation, 500 μL of a 50% dimethylsulfoxide (DMSO) physiological saline solution (DMSO: Junsei Chemical Corp., physiological saline: Otsuka Pharmaceutical Corp.) or 3.0 mmol/L of compound A solution was intraarticularly administered once a day into the right knee joint for a period of 3 weeks. The daily dosage of compound A was 816.8 μg.
On the day following the day of final administration, the right femoral distal and crural proximal sections were taken, and the femur was immersed overnight in 2% paraformaldehyde-2.5% glutaraldehyde fixing solution (both by Wako Pure Chemical Industries) for fixation, while the crus was immersed for one week in 20% neutral buffered formalin (Wako Pure Chemical Industries) for fixation.
After post-fixation of the femoral distal section with 1% osmium solution (Wako Pure Chemical Industries), it was dipped in an increasing ethanol series for dehydrogenation, and then substituted with isoamyl acetate and subsequently dried with a critical point drying apparatus (Hitachi Co., Ltd.). The dried tissue surface was coated with gold using an ion sputter coating apparatus (Eiko Corp.), and the femoral condyle cartilage surface was observed using a scanning electron microscope (Hitachi Co., Ltd.) (FIGS. 15A and 15B). The area of the damaged sections of the articular cartilage in the electron photomicrograph was measured using IPAP image analysis software (Sumika Technoservice Co., Ltd.), and judged on the scale shown in Table 11 below.
The proximal region of tibia was trimmed with a band saw (EXAKT Corp.) and then demineralized for 4 weeks with 20% EDTA-4Na solution (pH 7.4, Wako Pure Chemical Industries). […]

[4] = 500 μL intraarticular once a day for 3 weeks from day 7 after operation

## CCOC(CN1C(=O)[C@](CC(=O)Nc2ccc(C)cc2)(NC(=O)Nc2ccc(C)cc2)c2ccccc21)OCC [Compound A, (+)-1-(2,2-diethoxyethyl)-3-((4-methylphenyl)aminocarbonylmethyl)-3-(N′-(4-methylphenyl)ureido)indolin-2-one]
[1]
  differentiation of CL-1 to chondrocytes (from 35S-labeled sulfuric acid uptake): clearly promote
[2]; 10-week-old male SD rats, vs vehicle control
  femoral knee joint width: significantly larger
[2]; rats
  histological observation of femoral knee joint (Safranin O): Safranin O-positive accelerated formation of cartilage tissue
[3]; [4]
  medium grade lesion area of articular cartilage (scanning electron microscope): significantly smaller area of damage
  total lesion area of articular cartilage (scanning electron microscope): significantly smaller area of damage
[3]; 500 μL intraarticular once a day for 3 weeks, Safranin O stained tibia sections
  total histological scores, except for the loss of superficial layer: significantly lower
